Reference: ChEMBL document CHEMBL1201862, “PubChem BioAssay data set” (2004)
Active and inactive are the calls of the source.

What was measured:
[1] = target: Cytochrome P450 2C19 (Homo sapiens, UniProt P33261); assay: qHTS Assay for Inhibitors and Substrates of Cytochrome P450 2C19. [Related pubchem assays: 410 ]; format: ADME; settings: read-out: Potency
[2] = target: Cytochrome P450 2D6 (Homo sapiens, UniProt P10635); assay: qHTS Assay for Inhibitors and Substrates of Cytochrome P450 2D6. [Related pubchem assays: 410 ]; format: ADME; settings: read-out: Potency
Sequence of Cytochrome P450 2D6 (P10635 whole entry): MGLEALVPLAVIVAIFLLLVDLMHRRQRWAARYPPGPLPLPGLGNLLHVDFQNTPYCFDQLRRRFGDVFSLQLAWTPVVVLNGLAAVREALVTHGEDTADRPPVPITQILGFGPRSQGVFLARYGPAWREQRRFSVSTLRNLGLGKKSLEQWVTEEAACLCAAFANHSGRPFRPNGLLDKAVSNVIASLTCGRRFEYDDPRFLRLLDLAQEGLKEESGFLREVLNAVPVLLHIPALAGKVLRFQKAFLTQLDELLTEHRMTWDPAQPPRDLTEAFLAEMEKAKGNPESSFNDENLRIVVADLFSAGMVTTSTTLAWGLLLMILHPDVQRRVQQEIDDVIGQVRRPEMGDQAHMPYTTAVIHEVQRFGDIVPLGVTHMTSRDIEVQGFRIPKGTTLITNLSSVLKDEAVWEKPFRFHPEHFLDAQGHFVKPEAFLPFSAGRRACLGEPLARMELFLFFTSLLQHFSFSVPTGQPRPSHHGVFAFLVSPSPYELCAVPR

[3] = target: Cytochrome P450 3A4 (Homo sapiens, UniProt P08684); settings: Potency;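 also: confirmatory qHTS run detecting inhibitors and substrates of CYP3A4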
Sequence of Cytochrome P450 3A4 (P08684 whole entry): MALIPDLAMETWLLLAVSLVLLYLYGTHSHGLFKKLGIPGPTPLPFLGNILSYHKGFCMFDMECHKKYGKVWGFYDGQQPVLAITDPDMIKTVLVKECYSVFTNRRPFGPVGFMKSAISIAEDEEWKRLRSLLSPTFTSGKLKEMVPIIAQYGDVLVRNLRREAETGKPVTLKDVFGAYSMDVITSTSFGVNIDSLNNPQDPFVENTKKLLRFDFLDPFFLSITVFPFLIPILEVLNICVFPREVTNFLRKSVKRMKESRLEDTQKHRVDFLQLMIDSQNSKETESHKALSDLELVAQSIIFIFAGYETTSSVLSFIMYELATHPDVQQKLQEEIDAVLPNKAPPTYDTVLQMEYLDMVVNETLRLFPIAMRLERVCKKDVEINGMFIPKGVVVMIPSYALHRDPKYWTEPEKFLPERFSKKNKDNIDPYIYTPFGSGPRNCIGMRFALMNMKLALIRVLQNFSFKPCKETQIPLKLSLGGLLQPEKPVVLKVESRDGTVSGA

[4] = target: Cytochrome P450 2C9 (Homo sapiens, UniProt P11712); settings: Potency
Sequence of Cytochrome P450 2C9 (P11712 whole entry): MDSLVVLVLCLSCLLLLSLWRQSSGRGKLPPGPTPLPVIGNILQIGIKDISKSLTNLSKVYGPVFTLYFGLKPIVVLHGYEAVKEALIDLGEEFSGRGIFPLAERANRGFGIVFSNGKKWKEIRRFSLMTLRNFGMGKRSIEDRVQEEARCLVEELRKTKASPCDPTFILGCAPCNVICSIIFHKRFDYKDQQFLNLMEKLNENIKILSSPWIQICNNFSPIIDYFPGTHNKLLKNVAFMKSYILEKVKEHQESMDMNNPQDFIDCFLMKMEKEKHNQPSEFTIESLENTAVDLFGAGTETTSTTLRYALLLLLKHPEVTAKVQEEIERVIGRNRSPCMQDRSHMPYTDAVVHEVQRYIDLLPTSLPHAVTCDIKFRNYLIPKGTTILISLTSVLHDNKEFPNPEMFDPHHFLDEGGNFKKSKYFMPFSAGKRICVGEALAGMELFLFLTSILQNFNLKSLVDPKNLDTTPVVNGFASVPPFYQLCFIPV

[5] = M. tuberculosis growth inhibition, HTS (AID 449762); format: functional
[6] = microbe, parasite or virus in culture; format: functional; settings: Mycobacterium tuberculosis
[7] = THP-1 cell cytotoxicity, dose response, cytotoxicity control for non-replicating M. tuberculosis project (AID 489025); format: functional
[8] = cells; format: functional
[9] = target: Aryl hydrocarbon receptor (Homo sapiens, UniProt P35869); assay: Luminescence-based cell-based high throughput dose response assay for activators of the Aryl Hydrocarbon Receptor (AHR). [Related pubchem assays: 2796 (Primary screen (AHR activators in singlicate)), 2845 (Confirmation screen (AHR activators in triplicate)), 434939 (Counterscreen (PXR activators in triplicate)), 2804 (Summary (AHR activators))]; format: ADME
[10] = target: T1, NADPH oxidase 1 (Homo sapiens, UniProt Q9Y5S8); assay: Late-stage luminescence-based cell-based dose response assay to identify inhibitors of NADPH oxidase 1 (NOX1): Synthesized analogs.; format: functional
T1 sequence (Q9Y5S8 whole entry): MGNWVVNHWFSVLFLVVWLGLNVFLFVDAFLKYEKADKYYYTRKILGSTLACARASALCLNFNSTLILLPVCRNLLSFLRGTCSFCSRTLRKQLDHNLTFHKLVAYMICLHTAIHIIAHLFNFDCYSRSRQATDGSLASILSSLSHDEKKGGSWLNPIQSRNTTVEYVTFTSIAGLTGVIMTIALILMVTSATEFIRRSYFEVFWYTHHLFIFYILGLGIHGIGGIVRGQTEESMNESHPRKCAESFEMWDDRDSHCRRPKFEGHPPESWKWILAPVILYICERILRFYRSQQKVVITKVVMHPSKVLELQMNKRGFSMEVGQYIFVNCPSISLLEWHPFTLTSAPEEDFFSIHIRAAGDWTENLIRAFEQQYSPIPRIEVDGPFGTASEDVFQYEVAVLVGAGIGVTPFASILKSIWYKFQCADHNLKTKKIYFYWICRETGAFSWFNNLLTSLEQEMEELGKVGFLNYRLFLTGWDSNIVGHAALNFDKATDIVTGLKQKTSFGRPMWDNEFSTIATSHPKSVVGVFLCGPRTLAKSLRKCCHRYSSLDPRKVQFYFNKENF

[11] = target: Hepatocyte nuclear factor 4-alpha (Homo sapiens, UniProt P41235); format: functional, cell-based;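 also: biochemical luminescence-based dose-response counterscreen measuring inhibition of HNF4 dimerization, run alongside a screen for blockers of ABHD5–perilipin-5 interaction; split luciferase complementation of HNF4 fusion proteins in cell lysate measuring dimerization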
Sequence of Hepatocyte nuclear factor 4-alpha (P41235 whole entry, the tested form may be a part): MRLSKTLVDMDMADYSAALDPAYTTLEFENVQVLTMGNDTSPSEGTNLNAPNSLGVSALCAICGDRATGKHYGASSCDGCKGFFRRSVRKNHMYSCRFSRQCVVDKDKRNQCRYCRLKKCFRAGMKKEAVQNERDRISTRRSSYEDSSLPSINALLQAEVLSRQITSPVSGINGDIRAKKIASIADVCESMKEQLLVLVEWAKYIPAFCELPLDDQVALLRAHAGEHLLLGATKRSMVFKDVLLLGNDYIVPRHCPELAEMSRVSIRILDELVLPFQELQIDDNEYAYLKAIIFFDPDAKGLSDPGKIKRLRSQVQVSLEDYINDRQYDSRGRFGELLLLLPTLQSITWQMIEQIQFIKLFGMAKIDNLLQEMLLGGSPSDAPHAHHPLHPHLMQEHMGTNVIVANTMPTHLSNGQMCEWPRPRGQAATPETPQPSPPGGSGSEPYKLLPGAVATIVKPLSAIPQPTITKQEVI

[12] = target: E3 ubiquitin-protein ligase Mdm2 (Homo sapiens, UniProt Q00987); assay: MDM2-luc reporter signal enhancers, multi-concentration potency testing, MDM2 ubiquitin-protein ligase inhibitor program, whole-cell format, luminescence detection, 384-well microplate (AID 1394); format: functional;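 also: MDM2 E3 inhibitors raise luminescence so EC50 is for signal enhancement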
Sequence of E3 ubiquitin-protein ligase Mdm2 (Q00987 whole entry): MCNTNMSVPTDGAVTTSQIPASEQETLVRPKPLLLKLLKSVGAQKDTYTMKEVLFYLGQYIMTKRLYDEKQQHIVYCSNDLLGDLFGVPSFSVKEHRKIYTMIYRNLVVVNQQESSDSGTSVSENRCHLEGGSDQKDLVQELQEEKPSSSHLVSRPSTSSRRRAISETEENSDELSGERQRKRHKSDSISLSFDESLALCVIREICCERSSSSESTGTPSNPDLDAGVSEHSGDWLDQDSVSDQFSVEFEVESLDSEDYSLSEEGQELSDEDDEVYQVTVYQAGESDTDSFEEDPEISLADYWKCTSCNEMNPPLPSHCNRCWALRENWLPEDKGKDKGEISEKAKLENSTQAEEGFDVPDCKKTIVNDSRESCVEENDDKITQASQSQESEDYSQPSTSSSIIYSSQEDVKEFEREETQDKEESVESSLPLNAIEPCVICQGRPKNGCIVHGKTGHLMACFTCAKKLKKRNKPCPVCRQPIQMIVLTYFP

[13] = target: G-protein coupled receptor 55 (Homo sapiens, UniProt Q9Y2T6); assay: selective activators of receptor GPR55 – imaging, U2OS cells, beta-arrestin-GFP redistribution, primary screen (AID 1961); format: functional
Sequence of G-protein coupled receptor 55 (Q9Y2T6 whole entry): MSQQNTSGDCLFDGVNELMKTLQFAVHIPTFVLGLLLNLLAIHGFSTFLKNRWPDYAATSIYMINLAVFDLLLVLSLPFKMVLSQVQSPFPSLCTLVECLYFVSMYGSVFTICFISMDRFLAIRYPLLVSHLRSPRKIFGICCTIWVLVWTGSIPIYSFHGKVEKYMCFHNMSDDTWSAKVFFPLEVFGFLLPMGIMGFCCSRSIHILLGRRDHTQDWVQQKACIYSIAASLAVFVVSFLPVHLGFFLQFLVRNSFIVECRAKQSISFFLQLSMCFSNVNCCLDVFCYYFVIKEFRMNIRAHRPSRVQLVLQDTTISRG

[14] = reduction of Shn3 3'UTR-driven luciferase in osteoblasts – cell-based, Clone20 osteoblasts, firefly luciferase, cherry-picked, dose response (AID 624132); format: functional;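 also: firefly luciferase luminescence from reporter carrying the Shn3 3'UTR in osteoblasts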
[15] = non-specific 3'UTR reporter inhibition in Clone20-Shn3RL – cell-based, Renilla luciferase, cherry-picked, counter-screen for Shn3 inhibitor project, dose response (AID 624133); format: functional
[16] = target: T2, Galanin receptor type 3 (Homo sapiens, UniProt O60755); assay: Fluorescence-based cell-based primary high throughput dose response assay to identify antagonists of the Galanin Receptor 3 (GalR3).; format: functional
T2 sequence (O60755 whole entry): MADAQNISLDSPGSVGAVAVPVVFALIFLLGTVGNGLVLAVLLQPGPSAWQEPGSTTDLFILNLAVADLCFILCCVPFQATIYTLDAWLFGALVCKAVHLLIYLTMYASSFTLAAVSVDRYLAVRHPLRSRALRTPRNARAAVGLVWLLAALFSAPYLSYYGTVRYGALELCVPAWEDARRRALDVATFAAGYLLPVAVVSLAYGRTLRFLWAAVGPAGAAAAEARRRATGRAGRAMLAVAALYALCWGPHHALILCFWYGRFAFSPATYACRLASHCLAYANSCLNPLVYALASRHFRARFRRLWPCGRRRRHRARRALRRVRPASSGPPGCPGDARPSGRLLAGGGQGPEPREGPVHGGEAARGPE

[17] = cells; format: functional, cell-based; settings: HEK-CNG
[18] = target: Solute carrier family 12 member 2/member 5 (Homo sapiens, UniProt P55011+Q9H2X9); assay: KCC2 and NKCC1 inhibition by rubidium flux, cell-based, NKCC1 counter-screen (AID 1734); format: functional, HEK293
[19] = target: T3, Tyrosine-protein phosphatase non-receptor type 7 (Homo sapiens, UniProt P35236); assay: HePTP tyrosine phosphatase activity blockers – biochemical, absorbance, leukemia target, primary screen (AID 521); format: functional
T3 sequence (P35236 whole entry): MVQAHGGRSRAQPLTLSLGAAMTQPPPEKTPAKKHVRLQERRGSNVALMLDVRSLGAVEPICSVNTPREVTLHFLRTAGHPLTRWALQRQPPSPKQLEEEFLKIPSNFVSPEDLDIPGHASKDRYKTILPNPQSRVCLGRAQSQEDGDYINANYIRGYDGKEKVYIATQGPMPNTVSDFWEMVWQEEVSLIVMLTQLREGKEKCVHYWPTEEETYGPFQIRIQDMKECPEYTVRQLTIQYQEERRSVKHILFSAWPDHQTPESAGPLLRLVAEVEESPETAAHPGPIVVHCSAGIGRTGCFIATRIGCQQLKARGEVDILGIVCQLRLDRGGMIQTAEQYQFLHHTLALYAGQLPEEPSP

[20] = target: T1, NADPH oxidase 1; assay: Late-stage luminescence-based cell-based dose response assay to identify inhibitors of NADPH oxidase 1 (NOX1): Synthesized analogs 3.; format: functional
[21] = target: Voltage-gated inwardly rectifying potassium channel KCNH2 (Homo sapiens, UniProt Q12809); assay: concentration-dependent hERG rescue from blockers – cell-based, thallium flux, dose response (AID 2121); format: ADME
Sequence of Voltage-gated inwardly rectifying potassium channel KCNH2 (Q12809 whole entry): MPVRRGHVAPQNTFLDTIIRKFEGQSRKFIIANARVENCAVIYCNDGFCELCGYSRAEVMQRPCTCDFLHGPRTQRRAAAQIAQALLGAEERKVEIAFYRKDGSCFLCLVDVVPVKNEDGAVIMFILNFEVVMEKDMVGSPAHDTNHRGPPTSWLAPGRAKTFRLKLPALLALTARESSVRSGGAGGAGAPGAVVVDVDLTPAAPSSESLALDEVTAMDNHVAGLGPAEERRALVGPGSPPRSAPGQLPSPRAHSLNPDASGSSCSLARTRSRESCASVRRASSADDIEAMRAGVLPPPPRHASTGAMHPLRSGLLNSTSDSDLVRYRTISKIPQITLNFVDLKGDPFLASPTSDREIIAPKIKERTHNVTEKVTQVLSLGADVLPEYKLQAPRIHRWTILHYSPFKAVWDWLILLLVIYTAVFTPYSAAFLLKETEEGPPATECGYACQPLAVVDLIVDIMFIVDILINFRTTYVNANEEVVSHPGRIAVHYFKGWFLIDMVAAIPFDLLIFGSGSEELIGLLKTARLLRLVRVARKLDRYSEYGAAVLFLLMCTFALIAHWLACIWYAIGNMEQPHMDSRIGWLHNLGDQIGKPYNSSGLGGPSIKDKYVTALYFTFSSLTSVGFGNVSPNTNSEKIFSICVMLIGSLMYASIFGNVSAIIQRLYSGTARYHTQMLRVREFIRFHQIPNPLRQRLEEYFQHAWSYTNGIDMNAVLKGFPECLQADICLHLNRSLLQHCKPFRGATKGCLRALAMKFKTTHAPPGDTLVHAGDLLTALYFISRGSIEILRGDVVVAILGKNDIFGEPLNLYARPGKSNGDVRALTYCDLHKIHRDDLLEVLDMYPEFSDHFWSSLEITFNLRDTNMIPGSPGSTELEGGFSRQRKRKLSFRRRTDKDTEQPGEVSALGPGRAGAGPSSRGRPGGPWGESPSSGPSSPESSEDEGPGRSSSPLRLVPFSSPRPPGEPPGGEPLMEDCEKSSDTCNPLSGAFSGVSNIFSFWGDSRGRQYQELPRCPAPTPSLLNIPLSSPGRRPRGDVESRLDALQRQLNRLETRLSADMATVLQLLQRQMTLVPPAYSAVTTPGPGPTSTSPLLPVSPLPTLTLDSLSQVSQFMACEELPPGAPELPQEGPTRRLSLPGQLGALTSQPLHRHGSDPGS

[22] = target: 14-3-3 protein gamma (Homo sapiens, UniProt P61981); assay: modulators of 14-3-3 gamma client binding – dose response (AID 711); format: functional
Sequence of 14-3-3 protein gamma (P61981 whole entry): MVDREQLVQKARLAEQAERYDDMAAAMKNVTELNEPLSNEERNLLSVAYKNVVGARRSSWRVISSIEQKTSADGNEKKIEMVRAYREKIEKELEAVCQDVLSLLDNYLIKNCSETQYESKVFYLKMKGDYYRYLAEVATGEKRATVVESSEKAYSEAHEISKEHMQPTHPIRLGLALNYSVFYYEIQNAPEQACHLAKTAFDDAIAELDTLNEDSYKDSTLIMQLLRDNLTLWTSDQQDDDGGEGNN

[23] = IC50 of insulin release inhibition, rat insulinoma INS-1E line, 5 mM glucose, cell-based (AID 1117331); format: functional
[24] = glucagon-like peptide-1 release potency in STC-1, concentration-response, half-maximal inhibitory concentration in the STC-1 line (AID 1117345); format: functional, cell-based
[25] = Potency on glucagon-like peptide 1 release, dose-response in NCI-H716 cell line, half maximal inhibitory concentration (AID 1117344); format: functional, cell-based
[26] = target: T4, Leucine aminopeptidase (Plasmodium falciparum 3D7, UniProt Q8IL11); assay: P. falciparum M17LAP inhibitors, primary screen, biochemical, fluorogenic H-Leu-NHMec substrate, 1536-well (AID 1619); format: functional
T4 sequence (Q8IL11 whole entry): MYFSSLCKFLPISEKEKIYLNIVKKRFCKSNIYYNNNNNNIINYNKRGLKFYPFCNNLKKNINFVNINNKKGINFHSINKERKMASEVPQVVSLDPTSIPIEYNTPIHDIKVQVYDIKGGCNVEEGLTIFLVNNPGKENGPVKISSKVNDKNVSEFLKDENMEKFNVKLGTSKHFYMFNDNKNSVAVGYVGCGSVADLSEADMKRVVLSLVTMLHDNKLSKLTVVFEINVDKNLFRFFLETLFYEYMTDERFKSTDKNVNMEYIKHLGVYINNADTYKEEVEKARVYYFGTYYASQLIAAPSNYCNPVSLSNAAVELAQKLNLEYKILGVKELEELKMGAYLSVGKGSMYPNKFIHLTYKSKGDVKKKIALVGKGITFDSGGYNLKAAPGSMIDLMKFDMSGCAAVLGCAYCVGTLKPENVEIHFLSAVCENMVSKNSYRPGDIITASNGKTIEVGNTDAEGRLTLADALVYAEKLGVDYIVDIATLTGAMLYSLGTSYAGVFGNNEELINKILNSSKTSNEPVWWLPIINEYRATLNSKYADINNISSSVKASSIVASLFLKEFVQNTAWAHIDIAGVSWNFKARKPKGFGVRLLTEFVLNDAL

[27] = target: T5, Rac GTPase-activating protein 1 (Homo sapiens, UniProt Q9H0H5); assay: blockers of MgcRacGAP-driven Rac1 GTP hydrolysis – biochemical, ADP Hunter fluorescence, primary and confirmatory, confirmation (AID 624330); format: functional
T5 sequence (Q9H0H5 whole entry): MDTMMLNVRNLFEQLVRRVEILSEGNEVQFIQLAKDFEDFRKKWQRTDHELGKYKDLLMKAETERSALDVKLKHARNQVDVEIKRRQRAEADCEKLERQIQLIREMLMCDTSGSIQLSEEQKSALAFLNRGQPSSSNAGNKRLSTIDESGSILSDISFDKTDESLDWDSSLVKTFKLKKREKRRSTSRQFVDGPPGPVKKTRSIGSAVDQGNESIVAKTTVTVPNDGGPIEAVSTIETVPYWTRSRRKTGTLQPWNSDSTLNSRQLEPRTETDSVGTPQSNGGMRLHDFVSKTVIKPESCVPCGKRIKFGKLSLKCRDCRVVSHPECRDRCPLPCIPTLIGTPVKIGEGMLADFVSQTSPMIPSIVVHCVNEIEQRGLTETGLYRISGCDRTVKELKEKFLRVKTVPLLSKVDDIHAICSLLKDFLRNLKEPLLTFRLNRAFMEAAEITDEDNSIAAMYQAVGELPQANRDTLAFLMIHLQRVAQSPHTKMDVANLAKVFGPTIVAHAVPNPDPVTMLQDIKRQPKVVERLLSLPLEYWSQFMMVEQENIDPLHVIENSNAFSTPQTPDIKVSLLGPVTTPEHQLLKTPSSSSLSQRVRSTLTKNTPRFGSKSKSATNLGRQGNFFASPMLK

[28] = HIV-1 Vif–A3G interaction blockers – biochemical, TR-FRET, GST-Vif 1-94, biotin-A3G peptide, dose response retest, primary screen (AID 1117319); format: functional;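 also: TR-FRET signal of purified GST-Vif binding a biotinylated A3G peptide; inhibitors lower the FRET signal by blocking Vif and A3G binding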

Sequence of Cytochrome P450 2C19 (P33261 whole entry): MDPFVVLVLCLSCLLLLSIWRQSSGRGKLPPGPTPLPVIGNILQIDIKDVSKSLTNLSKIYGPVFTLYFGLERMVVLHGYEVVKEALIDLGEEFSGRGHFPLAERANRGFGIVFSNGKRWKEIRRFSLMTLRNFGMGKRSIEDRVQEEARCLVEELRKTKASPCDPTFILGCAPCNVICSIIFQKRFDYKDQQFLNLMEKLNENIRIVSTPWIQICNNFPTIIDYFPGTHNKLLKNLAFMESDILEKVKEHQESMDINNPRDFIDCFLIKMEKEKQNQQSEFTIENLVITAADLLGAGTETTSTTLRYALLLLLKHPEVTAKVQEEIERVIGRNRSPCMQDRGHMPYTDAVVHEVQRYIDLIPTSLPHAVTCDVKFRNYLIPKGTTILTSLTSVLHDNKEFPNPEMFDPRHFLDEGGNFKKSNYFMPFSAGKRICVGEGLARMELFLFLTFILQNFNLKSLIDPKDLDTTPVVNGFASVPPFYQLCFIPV

## O=c1c(O)c(-c2ccc(O)c(O)c2)oc2ccccc12
[1]
  AC50: 25.1 µM (inconclusive)
[2]
  AC50: 31.6 µM (inconclusive)
[3]
  AC50: 31.6 µM (inconclusive)
[4]
  AC50: 31.6 µM (inconclusive)

## CCCCNC(=O)Nc1nnc(-c2ccc(OCC)cc2)o1
[5]
  IC50: > 100 µM (active)
[6]
  CC50: > 40 µM (active)
[7]
  CC50: > 40 µM (active)
[8]
  IC50: 26.2 µM (active)

## Cc1nccc(-c2ccc(-n3cnc4ccccc43)cc2)n1
[9]
  EC50: > 1.13 µM (active)

## C=CC(=O)N1c2ccccc2Sc2ccc(NC(=O)OCC)cc21
[10]
  IC50: > 50 µM (not active)
[11]
  IC50: 12.2 µM (inactive)

## COc1ccccc1-c1cc(C(F)(F)F)nc(S(=O)(=O)CCCC(=O)Nc2cccnc2Cl)n1
[12]
  EC50: 2 µM (not active)
[13]
  EC50: 2.94 µM (active)
[14]
  AC50: 10.6 µM (active)
[15]
  AC50: 13.1 µM (active)
[16]
  IC50: > 29.9 µM (inactive)
[17]
  EC50: > 29.9 µM (inactive)

## Cc1nc(CC(=O)Nc2nc(-c3ccccc3)cs2)cs1
[18]
  IC50: 79 µM (active)

## Cc1cc(C)cc(OCCCCCNCCO)c1
[19]
  IC50: > 100 µM (not active)

## CN1c2ccccc2Sc2cc(C(=O)c3ccc(N=[N+]=[N-])cc3)ccc21
[20]
  IC50: > 20 µM (not active)

## COc1ccc(C(=O)CC(=O)C(=O)Nc2ccc(Cl)cc2)cc1
[21]
  EC50: 1.74 µM (active)

## CCOC(=O)N1CCC(NC(=O)CSCc2nc(-c3ccc(OC)c(OC)c3)oc2C)CC1
[22]
  IC50: > 50 µM (not active)

## O=C(CBr)Nc1ccc(Cl)cc1C(=O)c1ccccc1F
[23]
  IC50: > 33.3 µM (inactive)
[24]
  IC50: > 40 µM (inactive)
[25]
  IC50: > 40 µM (inactive)

## COc1ccc2c(c1OC)C(=O)OC2CC(=O)c1ccc(O)c(O)c1 (stereo not drawn)
[26]
  IC50: 35.2 µM (active)
[27]
  IC50: 56.1 µM (active)
[28]
  IC50: > 100 µM (active)
